Patent US5597823A, “Tricyclic substituted hexahydrobenz [e]isoindole alpha-1 adrenergic antagonists” (priority 1995, dated 1997)
Where a name gives a salt, the structure may show the parent alone.

Each molecule was assayed against T1, α-1A adrenoceptor (rat vas deferens) (Rattus norvegicus, UniProt P43140) (assay: Functional antagonism: phenylephrine (PE)-induced contraction of rat vas deferens). Conditions: vs phenylephrine; Schild plot; read-out: pA2 Rat Vas Deferens [α-1A] (converted).
T1 construct: PE-induced contraction of rat vas deferens; from tissue; host or cells: rat vas deferens
T1 sequence (P43140 1-466): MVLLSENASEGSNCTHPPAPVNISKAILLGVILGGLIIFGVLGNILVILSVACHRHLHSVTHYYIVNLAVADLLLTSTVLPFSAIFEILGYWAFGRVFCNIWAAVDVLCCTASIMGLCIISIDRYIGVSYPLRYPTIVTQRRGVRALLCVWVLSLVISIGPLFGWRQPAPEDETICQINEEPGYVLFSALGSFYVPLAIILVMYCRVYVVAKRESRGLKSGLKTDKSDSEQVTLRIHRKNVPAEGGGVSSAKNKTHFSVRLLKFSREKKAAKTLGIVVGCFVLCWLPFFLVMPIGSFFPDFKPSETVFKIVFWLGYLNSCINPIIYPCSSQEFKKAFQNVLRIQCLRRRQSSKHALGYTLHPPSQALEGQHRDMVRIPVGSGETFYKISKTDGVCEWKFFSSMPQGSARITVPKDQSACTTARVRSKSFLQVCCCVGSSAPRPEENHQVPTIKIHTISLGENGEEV
Assay type: cell-based
Excerpt: (§1) Functional assays indicative of pharmacologically defined α-1 adrenoceptors were used to further characterize compounds. Inhibition of phenylephrine (PE)-induced contraction of canine prostate smooth muscle can be correlated with α-1A adrenoceptor activation. […] For each of these models, agonist dose response curves were repeated against increasing concentrations of test agent to derive a Schild plot [log ([…]) against log (molarity of test agent)] to determine the pA2.

SMILES	Kb
COc1cccc2c1CC[C@H]1CN(CCn3c(=O)[nH]c4c(sc5ccc(C(=O)N6CCOCC6)cc54)c3=O)C[C@@H]21 [Example 58, hydrochloride]	4.37 nM
COc1cccc2c1CC[C@@H]1CN(CCn3c(=O)[nH]c4c(oc5ccccc54)c3=O)C[C@@H]21 (relative stereo) [Example 18, 3-[2-(trans-6-Methoxy-2,3,3a,4,5,9b-hexahydro-[[1H]-benz[e]isoindol-1-yl)ethyl]-benzofuro[3,2-d]pyrimidine-2,4(1H,3H)-dione hydrochloride]	13.8 nM

What follows are molecules tested against T2, α-1B adrenoceptor (rat spleen) (Rattus norvegicus, UniProt P15823) (assay: Functional antagonism: phenylephrine (PE)-induced contraction of rat spleen). Conditions: PE-induced contraction, pA2 models compared.
T2 construct: PE-induced contraction of rat spleen; from tissue; host or cells: rat spleen
T2 sequence (P15823 1-515): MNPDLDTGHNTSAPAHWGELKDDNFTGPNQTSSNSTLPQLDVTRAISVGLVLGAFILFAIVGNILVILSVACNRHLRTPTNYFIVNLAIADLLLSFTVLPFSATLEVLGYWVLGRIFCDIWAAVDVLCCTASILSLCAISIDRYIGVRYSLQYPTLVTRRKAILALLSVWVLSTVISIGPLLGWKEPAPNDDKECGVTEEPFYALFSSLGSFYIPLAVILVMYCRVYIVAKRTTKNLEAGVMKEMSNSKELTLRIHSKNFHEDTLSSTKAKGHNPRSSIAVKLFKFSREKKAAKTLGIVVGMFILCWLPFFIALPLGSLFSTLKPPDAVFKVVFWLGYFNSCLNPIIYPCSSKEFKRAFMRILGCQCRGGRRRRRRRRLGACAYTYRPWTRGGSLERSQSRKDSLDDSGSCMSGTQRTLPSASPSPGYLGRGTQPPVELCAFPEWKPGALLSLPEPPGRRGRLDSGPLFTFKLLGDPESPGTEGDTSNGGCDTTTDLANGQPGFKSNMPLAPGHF
Assay type: cell-based
Excerpt: as §1

SMILES	more potent effect on spleen smooth muscle
COc1cc2nc(N3CCN(C(=O)C4COc5ccccc5O4)CC3)nc(N)c2cc1OC (stereo not drawn) [doxazosin, reference compound]	more potent effect on spleen smooth muscle by approximately an order of magnitude

Same assay, conditions: vs phenylephrine; Schild plot; read-out: pA2 Rat Spleen [α-1B] (converted)

SMILES	Kb
COc1cccc2c1CC[C@H]1CN(CCn3c(=O)[nH]c4c(sc5ccc(C(=O)N6CCOCC6)cc54)c3=O)C[C@@H]21 [Example 58, hydrochloride]	36.3 nM
COc1cccc2c1CC[C@@H]1CN(CCn3c(=O)[nH]c4c(oc5ccccc54)c3=O)C[C@@H]21 (relative stereo) [Example 18, 3-[2-(trans-6-Methoxy-2,3,3a,4,5,9b-hexahydro-[[1H]-benz[e]isoindol-1-yl)ethyl]-benzofuro[3,2-d]pyrimidine-2,4(1H,3H)-dione hydrochloride]	13.5 nM

Each molecule was assayed against T3, α-1A adrenoceptor (dog prostate) (Canis lupus, UniProt A0A8I3NK63) (assay: Functional antagonism: phenylephrine (PE)-induced contraction of canine prostate strips). Conditions: Table 2a; vs phenylephrine; Schild plot.
T3 sequence (A0A8I3NK63 1-466): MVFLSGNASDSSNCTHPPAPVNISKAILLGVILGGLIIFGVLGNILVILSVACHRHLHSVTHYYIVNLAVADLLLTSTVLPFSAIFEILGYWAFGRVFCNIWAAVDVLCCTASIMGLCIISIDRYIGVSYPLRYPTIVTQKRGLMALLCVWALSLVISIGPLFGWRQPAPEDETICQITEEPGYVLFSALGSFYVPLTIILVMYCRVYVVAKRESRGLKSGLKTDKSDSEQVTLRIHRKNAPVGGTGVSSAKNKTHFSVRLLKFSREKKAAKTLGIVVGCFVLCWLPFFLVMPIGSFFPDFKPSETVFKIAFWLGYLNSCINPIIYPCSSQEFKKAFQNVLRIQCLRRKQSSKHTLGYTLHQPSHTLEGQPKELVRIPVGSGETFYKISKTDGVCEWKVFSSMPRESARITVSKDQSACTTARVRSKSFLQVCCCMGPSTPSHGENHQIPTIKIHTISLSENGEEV
Assay type: cell-based
Excerpt: as §1
Canine prostate strips were used in vitro as previously described (Hieble, J. P., Boyce, A. J. and Caine, M., Fed. Proc., 45:2609-2614 (1986)), to determine antagonist potencies against phenylephrine-induced contractions.

SMILES	pA2 Dog Prostate [α-1A]
COc1cccc2c1CC[C@H]1CN(CCn3c(=O)[nH]c4c(sc5ccc(C(=O)N6CCOCC6)cc54)c3=O)C[C@@H]21 [Example 58, hydrochloride]	9.09
COc1cccc2c1CC[C@@H]1CN(CCn3c(=O)[nH]c4c(oc5ccccc54)c3=O)C[C@@H]21 (relative stereo) [Example 18, 3-[2-(trans-6-Methoxy-2,3,3a,4,5,9b-hexahydro-[[1H]-benz[e]isoindol-1-yl)ethyl]-benzofuro[3,2-d]pyrimidine-2,4(1H,3H)-dione hydrochloride]	8.37

Same assay, conditions: Table 2b; vs phenylephrine; Schild plot

SMILES	pA2 Dog Prostate [α-1A]
COc1cccc2c1CC[C@H]1CN(CCn3c(=O)[nH]c4c(sc5cc(C#N)ccc54)c3=O)C[C@@H]21 [Example 42, 3-[2-((3aR,9bR)-cis-6-Methoxy-2,3,3a,4,5,9b-hexahydro-[1H]-benz[e]isoindol-1-yl)ethyl]-[1]-7-cyano-benzothieno[3,2-d]pyrimidine-2,4(1H,3H)-dione hydrochloride]	9.09
COc1cccc2c1CC[C@H]1CN(CCn3c(=O)[nH]c4c(sc5ccc(NC(C)=O)cc54)c3=O)C[C@@H]21 [Example 49, 3-[2-((3aR,9bR)-cis-6-Methoxy-2,3,3a,4,5,9b-hexahydro-[1H]-benz[e]isoindol-1-yl)ethyl]-[1]-8-acetamido-benzothieno[3,2-d]pyrimidine-2,4(1H,3H)-dione hydrochloride]	7.84
COc1cccc2c1CC[C@H]1CN(CCn3c(=O)[nH]c4c(sc5cc([N+](=O)[O-])ccc54)c3=O)C[C@@H]21 [Example 47, 3-[2-((3aR,9bR)-cis-6-Methoxy-2,3,3a.4,5,9b-hexahydro-[1H]-benz[e]isoindol-1-yl)ethyl]-[1]-7-nitro-benzothieno[3,2-d]pyrimidine-2,4(1H,3H)-dione hydrochloride]	8.7
COc1cccc2c1CC[C@H]1CN(CCn3c(=O)c4sc5nccnc5c4n(C)c3=O)C[C@@H]21 [Example 95, hydrochloride]	9.07
COc1cc2sc3c(=O)n(CCN4C[C@@H]5CCc6c(OC)cccc6[C@@H]5C4)c(=O)[nH]c3c2cc1OC [Example 68, 3-[2-((3aR,9bR)-cis-6-Methoxy-2,3,3a,4,5,9b-hexahydro-[1H]-benz[e]isoindol-1-yl)ethyl]-[1]-7,8-dimethoxy-benzothieno[3,2-d]pyrimidine-2,4(1H,3H)-dionehydrochloride]	7.87
COc1cccc2c1CC[C@H]1CN(CCn3c(=O)[nH]c4c(sc5cccc(Cl)c54)c3=O)C[C@@H]21 [Example 72, 3-[2-((3aR,9bR)-cis-6-Methoxy-2,3,3a,4,5,9b-hexahydro-[1H]-benz[e]isoindol-1-yl)ethyl]-[1]-9-chloro-benzothieno[3,2-d]pyrimidine-2,4(1H,3H)-dione hydrochloride]	8.38
CCCCn1c(=O)n(CCN2C[C@@H]3CCc4c(OC)cccc4[C@@H]3C2)c(=O)c2sc3nccnc3c21 [Example 101, hydrochloride]	7.31
COc1cccc2c1CC[C@H]1CN(CCn3c(=O)[nH]c4sc5ccccc5c4c3=O)C[C@@H]21 (relative stereo) [Example 13, 3-[2-(cis-6-Methoxy-2,3,3a,4,5,9b-hexahydro-[1H]-benz[e]isoindol-1-yl)ethyl]-[1]benzothieno[2,3-d]pyrimidine-2,4(1H,3H)-dione hydrochloride]	7.68
COc1cccc2c1CC[C@H]1CN(CCCCn3c(=O)[nH]c4c(sc5ccccc54)c3=O)C[C@@H]21 (relative stereo) [Example 12, 3-[4-(cis-6-Methoxy-2,3,3a,4,5,9b-hexahydro-[1H]-benz[e]isoindol-1-yl)butyl]-[1]benzothieno[3,2-d]pyrimidine-2,4(1H,3H)-dione hydrochloride]	7.33
O=c1[nH]c2c(sc3ccccc32)c(=O)n1CCN1C[C@@H]2CCc3c(O)cccc3[C@@H]2C1 (relative stereo) [Example 20, 3-2-(cis-6-Hydroxy-2,3,3a,4,5,9b-hexahydro-[1H]-benz[e]isoindol-1-yl)ethyl]-[1]benzothieno[3,2-d]pyrimidine-2,4(1H,3H) -dione hydrobromide]	7.43
COc1cccc2c1[C@@H]1CN(CCCCn3c(=O)[nH]c4c(sc5ccccc54)c3=O)C[C@@H]1CC2 (relative stereo) [Example 15, 3-[4-(cis-9-Methoxy-2,3,3a,4,5,9b-hexahydro-1H]-benz[e]isoindol-1-yl)butyl]-[1]benzothieno[3,2-d]pyrimidine-2,4(1H,3H)-dione hydrochloride]	7.34
COc1cccc2c1CC[C@H]1CN(CCn3c(=O)[nH]c4c(sc5ccc(N(C)C)cc54)c3=O)C[C@@H]21 [Example 50, 3-[2-((3aR,9bR)-cis-6-Methoxy-2,3,3a,4,5,9b-hexahydro-[1H]-benz[e]isoindol-1-yl)ethyl]-[1]-8-N,N-dimethylamino-benzothieno[3,2-d]pyrimidine-2,4(1H,3H)-dione hydrochloride]	7.24
COc1cccc2c1CC[C@H]1CN(CCn3c(=O)[nH]c4c(sc5ccc([N+](=O)[O-])cc54)c3=O)C[C@@H]21 [Example 48, 3-[2-((3aR,9bR)-cis-6-Methoxy-2,3,3a,4,5,9b-hexahydro-[1H]-benz[e]isoindol-1-yl)ethyl]-[1]-8-nitro-benzothieno[3,2-d]pyrimidine-2,4(1H,3H)-dione hydrochloride]	8.32
COc1cccc2c1CC[C@H]1CN(CCn3c(=O)[nH]c4c(oc5ncccc54)c3=O)C[C@@H]21 (relative stereo) [Example 27, 3-[2-(cis-6-Methoxy-2,3,3a,4,5,9b-hexahydro-[1H]-benz[e]isoindol-1-yl)ethyl]-pyrido[3',2':4,5]furo[3,2-d]pyrimidine-2,4(1H,3H)-dione hydrochloride]	8.72
COc1cccc2c1CC[C@H]1CN(CCn3c(=O)[nH]c4c(sc5nc(C)cnc54)c3=O)C[C@@H]21 [Example 92, hydrochloride]	9.1
COc1cccc2c1CC[C@H]1CN(CCn3c(=O)[nH]c4c(sc5nc(C)c(C)nc54)c3=O)C[C@@H]21 [Example 103, hydrochloride]	9.43

Same assay, conditions: Table 2b; vs phenylephrine; Schild plot; hydrochloride

SMILES	pA2 Dog Prostate [α-1A]
COc1cccc2c1CC[C@H]1CN(CCn3c(=O)[nH]c4c(sc5cccc(C)c54)c3=O)C[C@@H]21 [Example 35, 3-2-((3aR,9bR)-cis-6-Methoxy-2,3,3a,4,5,9b-hexahydro-[1H]-benz[e]isoindol-1-yl)ethyl]-9-methyl[1]benzothieno[3,2-d]pyrimidine-2,4(1H,3H)-dione hydrochloride]	8.74
